From article PMC4117758 (2014)

Experiments:
[1] = tested on: C-MYC (DNA, G4) TGAGGGTGGGAGGGTGGGAA; assay: UV-vis absorption; details: 150 mM KCl; 10 mM Tris-HCl pH 7.4, 1 mM Na2EDTA, 400 ml/l PEG 200; DNA up to 10:1 over compound
[2] = tested on: KRAS (DNA, G4) AGGGCGGTGGGAAGAGGGAAGAGGGGGAGG; assay: UV-vis absorption; details: 150 mM KCl; 10 mM Tris-HCl pH 7.4, 1 mM Na2EDTA, 400 ml/l PEG 200; DNA up to 10:1 over compound
[3] = tested on: M3Q (DNA, G4) GAGGGAGGGAGGGAGAGGGA; assay: UV-vis absorption; details: 150 mM KCl; 10 mM Tris-HCl pH 7.4, 1 mM Na2EDTA, 400 ml/l PEG 200; DNA up to 10:1 over compound
[4] = tested on: Oxy28 (DNA, G4) GGGGTTTTGGGGTTTTGGGGTTTGGGG; assay: UV-vis absorption; details: 150 mM KCl; 10 mM Tris-HCl pH 7.4, 1 mM Na2EDTA, 400 ml/l PEG 200; DNA up to 10:1 over compound
[5] = tested on: AT (DNA, duplex) ATATATATATAT; assay: UV-vis absorption; details: 150 mM KCl; 10 mM Tris-HCl pH 7.4, 1 mM Na2EDTA, 400 ml/l PEG 200; 20 μM DNA
[6] = tested on: GC (DNA, duplex) GCGCGCGCGCGC; assay: UV-vis absorption; details: 150 mM KCl; 10 mM Tris-HCl pH 7.4, 1 mM Na2EDTA, 400 ml/l PEG 200; 20 μM DNA
[7] = tested on: LD (DNA, duplex) GCGCAATTGCGC; assay: UV-vis absorption; details: 150 mM KCl; 10 mM Tris-HCl pH 7.4, 1 mM Na2EDTA, 400 ml/l PEG 200; 20 μM DNA
[8] = tested on: ssDNA1 (DNA, single strand) GAGCTCTCGAAAGAGCTCCGATTA; assay: UV-vis absorption; details: 150 mM KCl; 10 mM Tris-HCl pH 7.4, 1 mM Na2EDTA, 400 ml/l PEG 200; 20 μM DNA
[9] = tested on: ssDNA2 (DNA, single strand) TAGAGCACACCTGTCCGTG; assay: UV-vis absorption; details: 150 mM KCl; 10 mM Tris-HCl pH 7.4, 1 mM Na2EDTA, 400 ml/l PEG 200; 20 μM DNA
[10] = tested on: Hum21 (DNA, G4) GGGTTAGGGTTAGGGTTAGGG; assay: UV melting at 295 nm; details: 50 mM KCl; 10 mM Tris-HCl pH 7.4, 1 mM Na2EDTA, no PEG; 5 μM compound, 5 μM DNA; derived from two Tm
[11] = tested on: Hum45 (DNA, G4) GGGTTAGGGTTAGGGTTAGGGTTAGGGTTAGGGTTAGGGTTAGGG; assay: UV melting at 295 nm; details: 50 mM KCl; 10 mM Tris-HCl pH 7.4, 1 mM Na2EDTA, no PEG; 5 μM compound, 5 μM DNA; derived from two Tm
[12] = tested on: Hum51 (DNA, G4) GGGTTAGGGTTAGGGTTAGGGTTAGGGTTAGGGTTAGGGTTAGGGTTAGGG; assay: UV melting at 295 nm; details: 50 mM KCl; 10 mM Tris-HCl pH 7.4, 1 mM Na2EDTA, no PEG; 5 μM compound, 5 μM DNA; derived from two Tm
[13] = tested on: Hum57 (DNA, G4) GGGTTAGGGTTAGGGTTAGGGTTAGGGTTAGGGTTAGGGTTAGGGTTAGGGTTAGGG; assay: UV melting at 295 nm; details: 50 mM KCl; 10 mM Tris-HCl pH 7.4, 1 mM Na2EDTA, no PEG; 5 μM compound, 5 μM DNA; derived from two Tm
[14] = tested on: Hum63 (DNA, G4) GGGTTAGGGTTAGGGTTAGGGTTAGGGTTAGGGTTAGGGTTAGGGTTAGGGTTAGGGTTAGGG; assay: UV melting at 295 nm; details: 50 mM KCl; 10 mM Tris-HCl pH 7.4, 1 mM Na2EDTA, no PEG; 5 μM compound, 5 μM DNA; derived from two Tm
[15] = tested on: Hum69 (DNA, G4) GGGTTAGGGTTAGGGTTAGGGTTAGGGTTAGGGTTAGGGTTAGGGTTAGGGTTAGGGTTAGGGTTAGGG; assay: UV melting at 295 nm; details: 50 mM KCl; 10 mM Tris-HCl pH 7.4, 1 mM Na2EDTA, no PEG; 5 μM compound, 5 μM DNA; derived from two Tm
[16] = tested on: Hum21 (DNA, G4) GGGTTAGGGTTAGGGTTAGGG; assay: UV-vis absorption titration, Scatchard; details: 150 mM KCl; 10 mM Tris-HCl pH 7.4, 1 mM Na2EDTA, 400 ml/l PEG 200; 3 μM compound; Ka undetected
[17] = tested on: Hum45 (DNA, G4) GGGTTAGGGTTAGGGTTAGGGTTAGGGTTAGGGTTAGGGTTAGGG; assay: UV-vis absorption titration, Scatchard; details: 150 mM KCl; 10 mM Tris-HCl pH 7.4, 1 mM Na2EDTA, 400 ml/l PEG 200; 3 μM compound; n = 0.46
[18] = tested on: Hum51 (DNA, G4) GGGTTAGGGTTAGGGTTAGGGTTAGGGTTAGGGTTAGGGTTAGGGTTAGGG; assay: UV-vis absorption titration, Scatchard; details: 150 mM KCl; 10 mM Tris-HCl pH 7.4, 1 mM Na2EDTA, 400 ml/l PEG 200; 3 μM compound; n = 0.50
[19] = tested on: Hum51-M1 (DNA, G4) GGGTTAGGGTTAGGGTTAGGGTTAGGGTTAGGGTTAGGGTTAGGGTGTGAG; assay: UV-vis absorption titration, Scatchard; details: 150 mM KCl; 10 mM Tris-HCl pH 7.4, 1 mM Na2EDTA, 400 ml/l PEG 200; 3 μM compound; n = 0.45
[20] = tested on: Hum51-M2 (DNA, G4) GGGTTAGGGTTAGGGTTAGGGTTGAGTGTAGGGTTAGGGTTAGGGTTAGGG; assay: UV-vis absorption titration, Scatchard; details: 150 mM KCl; 10 mM Tris-HCl pH 7.4, 1 mM Na2EDTA, 400 ml/l PEG 200; 3 μM compound; n = 0.46
[21] = tested on: Hum57 (DNA, G4) GGGTTAGGGTTAGGGTTAGGGTTAGGGTTAGGGTTAGGGTTAGGGTTAGGGTTAGGG; assay: UV-vis absorption titration, Scatchard; details: 150 mM KCl; 10 mM Tris-HCl pH 7.4, 1 mM Na2EDTA, 400 ml/l PEG 200; 3 μM compound; n = 0.48
[22] = tested on: Hum57-M1 (DNA, G4) GGGTTAGGGTTAGGGTTAGGGTTAGGGTTAGGGTTAGGGTTAGGGTGTGAGTGTGAG; assay: UV-vis absorption titration, Scatchard; details: 150 mM KCl; 10 mM Tris-HCl pH 7.4, 1 mM Na2EDTA, 400 ml/l PEG 200; 3 μM compound; n = 0.48
[23] = tested on: Hum57-M2 (DNA, G4) GGGTTAGGGTTAGGGTTAGGGTTGAGTGTAGGGTTAGGGTTAGGGTTAGGGTGTGAG; assay: UV-vis absorption titration, Scatchard; details: 150 mM KCl; 10 mM Tris-HCl pH 7.4, 1 mM Na2EDTA, 400 ml/l PEG 200; 3 μM compound; n = 0.47
[24] = tested on: Hum57-M3 (DNA, G4) GGGTTAGGGTTAGGGTTAGGGTTGAGTGTGAGTGTAGGGTTAGGGTTAGGGTTAGGG; assay: UV-vis absorption titration, Scatchard; details: 150 mM KCl; 10 mM Tris-HCl pH 7.4, 1 mM Na2EDTA, 400 ml/l PEG 200; 3 μM compound; n = 0.50
[25] = tested on: Hum63 (DNA, G4) GGGTTAGGGTTAGGGTTAGGGTTAGGGTTAGGGTTAGGGTTAGGGTTAGGGTTAGGGTTAGGG; assay: UV-vis absorption titration, Scatchard; details: 150 mM KCl; 10 mM Tris-HCl pH 7.4, 1 mM Na2EDTA, 400 ml/l PEG 200; 3 μM compound; n = 0.52
[26] = tested on: Hum63-M1 (DNA, G4) GGGTTAGGGTTAGGGTTAGGGTTAGGGTTAGGGTTAGGGTTAGGGTGTGAGTGTGAGTGTGAG; assay: UV-vis absorption titration, Scatchard; details: 150 mM KCl; 10 mM Tris-HCl pH 7.4, 1 mM Na2EDTA, 400 ml/l PEG 200; 3 μM compound; n = 0.46
[27] = tested on: Hum63-M2 (DNA, G4) GGGTTAGGGTTAGGGTTAGGGTTGAGTGTAGGGTTAGGGTTAGGGTTAGGGTGTGAGTGTGAG; assay: UV-vis absorption titration, Scatchard; details: 150 mM KCl; 10 mM Tris-HCl pH 7.4, 1 mM Na2EDTA, 400 ml/l PEG 200; 3 μM compound; n = 0.50
[28] = tested on: Hum63-M3 (DNA, G4) GGGTTAGGGTTAGGGTTAGGGTTGAGTGTGAGTGTAGGGTTAGGGTTAGGGTTAGGGTGTGAG; assay: UV-vis absorption titration, Scatchard; details: 150 mM KCl; 10 mM Tris-HCl pH 7.4, 1 mM Na2EDTA, 400 ml/l PEG 200; 3 μM compound; n = 0.50
[29] = tested on: Hum69 (DNA, G4) GGGTTAGGGTTAGGGTTAGGGTTAGGGTTAGGGTTAGGGTTAGGGTTAGGGTTAGGGTTAGGGTTAGGG; assay: UV-vis absorption titration, Scatchard; details: 150 mM KCl; 10 mM Tris-HCl pH 7.4, 1 mM Na2EDTA, 400 ml/l PEG 200; 3 μM compound; n = 0.52

SMILES: C[N+]1(CCOc2cccc(-c3c4nc(c(-c5cccc(OCC[N+]6(C)CCCCC6)c5)c5ccc([nH]5)c(-c5cccc(OCC[N+]6(C)CCCCC6)c5)c5nc(c(-c6cccc(OCC[N+]7(C)CCCCC7)c6)c6ccc3[nH]6)C=C5)C=C4)c2)CCCCC1
- binding [1]: no
- binding [2]: no
- binding [3]: no
- binding [4]: no
- binding [5]: no
- binding [6]: no
- binding [7]: no
- binding [8]: no
- binding [9]: no
- melting temperature shift (ΔTm) [10]: 0.4 °C
- melting temperature shift (ΔTm) [11]: 9.1 °C
- melting temperature shift (ΔT1/2) [12]: 8.0 °C
- melting temperature shift (ΔTm) [13]: 9.2 °C
- melting temperature shift (ΔTm) [14]: 8.9 °C
- melting temperature shift (ΔTm) [15]: 6.6 °C
- binding [16]: no
- Ka [17]: 1.11e+06 M⁻¹
- Ka [18]: 1.66e+06 M⁻¹
- Ka [19]: 1.09e+06 M⁻¹
- Ka [20]: 1.1e+06 M⁻¹
- Ka [21]: 1.05e+06 M⁻¹
- Ka [22]: 1.3e+06 M⁻¹
- Ka [23]: 1.38e+06 M⁻¹
- Ka [24]: 1.08e+06 M⁻¹
- Ka [25]: 2.53e+06 M⁻¹
- Ka [26]: 2.08e+06 M⁻¹
- Ka [27]: 1.1e+06 M⁻¹
- Ka [28]: 1.08e+06 M⁻¹
- Ka [29]: 2.05e+06 M⁻¹
